This note sets out measurements from patent US9732075B2, “Benzimidazole-proline derivatives” (IDORSIA PHARMACEUTICALS LTD, priority 2012, dated 2017).

Each structure is given as a SMILES string.

One assay addresses human orexin-1 receptor (Homo sapiens (Human), UniProt O43613). As to the kind of experiment: In vitro assay: intracellular calcium measurements (FLIPR), antagonistic activity. To be noted: CHO cells expressing human orexin-1 receptor, orexin-A agonist, geometric mean, read-out: IC50 Ox1. The assay is classed as cell-based. Summed up:
(§1)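 hOX1R/hOX2R CHO cells, fluo-4 AM + 5 mM probenecid, 50 min 37 °C then 30 min RT. Cpd 120 min, then orexin-A 3 nM final; FLIPR peak height vs vehicle. IC50, geometric mean of repeats.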
(Calcium assays in cells follow changes in intracellular calcium, usually with a dye or a luminescent sensor.)

The next assay deals with human orexin-2 receptor (Homo sapiens (Human), UniProt O43614). Described as above. The assay is classed as cell-based. The settings on record: CHO cells expressing human orexin-2 receptor, orexin-A agonist, geometric mean, read-out: IC50 Ox2. In short, it runs like this: as §1
Chain of human orexin-2 receptor (O43614 whole entry): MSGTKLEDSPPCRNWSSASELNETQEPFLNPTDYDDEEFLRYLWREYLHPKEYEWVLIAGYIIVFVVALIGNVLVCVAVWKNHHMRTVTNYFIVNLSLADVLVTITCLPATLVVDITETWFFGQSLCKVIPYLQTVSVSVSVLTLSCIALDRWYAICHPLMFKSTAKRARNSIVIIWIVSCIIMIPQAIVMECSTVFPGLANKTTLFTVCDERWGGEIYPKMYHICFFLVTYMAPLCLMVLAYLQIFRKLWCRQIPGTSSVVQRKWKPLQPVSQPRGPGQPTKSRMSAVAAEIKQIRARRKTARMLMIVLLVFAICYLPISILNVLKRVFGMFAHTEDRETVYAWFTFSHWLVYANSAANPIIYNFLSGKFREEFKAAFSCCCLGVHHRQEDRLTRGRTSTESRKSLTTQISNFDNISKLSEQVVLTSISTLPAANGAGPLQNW

Chain of human orexin-1 receptor (O43613 whole entry): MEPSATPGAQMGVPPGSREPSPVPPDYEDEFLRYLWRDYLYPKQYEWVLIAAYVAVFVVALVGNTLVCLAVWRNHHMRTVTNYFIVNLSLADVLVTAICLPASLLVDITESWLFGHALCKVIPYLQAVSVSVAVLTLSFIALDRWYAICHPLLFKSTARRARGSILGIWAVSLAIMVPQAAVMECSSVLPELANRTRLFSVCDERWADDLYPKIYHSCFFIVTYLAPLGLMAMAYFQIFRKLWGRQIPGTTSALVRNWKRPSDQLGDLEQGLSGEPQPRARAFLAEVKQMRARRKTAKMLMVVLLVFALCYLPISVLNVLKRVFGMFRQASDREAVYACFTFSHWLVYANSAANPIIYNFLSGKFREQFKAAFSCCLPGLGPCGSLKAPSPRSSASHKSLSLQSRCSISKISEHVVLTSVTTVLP

With `COc1cccc2nc([C@@H]3CCCN3C(=O)c3nc(C)sc3-c3cccc(Cl)c3)[nH]c12` [Ex. 1.11], the figures for the half-maximal inhibitory concentration (IC50) on human orexin-1 receptor and at human orexin-2 receptor were 110 nM and 54 nM, respectively.
With `COc1ccc(-n2nccn2)c(C(=O)N2C[C@H](OC)C[C@H]2c2nc3ccc(Cl)c(C)c3n2C)c1` [Ex. 7.1], the IC50 on human orexin-1 receptor is 16 nM; on human orexin-2 receptor, 162 nM.
Consider `Cc1cccc2[nH]c([C@]3(C)CCCN3C(=O)c3ccccc3-n3nccn3)nc12` [Ex. 5.52], for which the concentration for half-maximal inhibition (IC50) on human orexin-1 receptor turned out to be 107 nM; at human orexin-2 receptor it was 43 nM.
In the case of `CO[C@H]1CN(C(=O)c2cc(OC(F)(F)F)ccc2-n2nccn2)C(C)(c2nc3c(C)c(Cl)ccc3[nH]2)C1` (stereo partly drawn) [Ex. 3.51], the IC50 on human orexin-1 receptor turned out to be 94 nM; on human orexin-2 receptor, 44 nM.
`C=C1C[C@@H](c2nc3c(C)c(Cl)ccc3[nH]2)N(C(=O)c2nc(C)sc2-c2ccccc2)C1` [Ex. 6.41]: the IC50 on human orexin-1 receptor is 4 nM; on human orexin-2 receptor, 2 nM.
Turning to `CCn1c([C@]2(C)CCCN2C(=O)c2cc(C)ccc2-c2ccc(F)cc2)nc2cc(C)c(C)cc21` [Ex. 7.16], the IC50 at human orexin-1 receptor amounted to 8 nM; at human orexin-2 receptor, 21 nM.
On the same counts, the results for `CO[C@@H]1C[C@@H](c2nc3ccc(Cl)c(C)c3[nH]2)N(C(=O)c2nc(N(C)C)sc2-c2ccc(C)c(C)c2)C1` [Ex. 3.33] are 0.8 nM and 10 nM.
As to `C=C1C[C@@H](c2nc3cc(SC)ccc3[nH]2)N(C(=O)c2cc(C)ccc2-n2nccn2)C1` [Ex. 6.60], the IC50 was 83 nM at human orexin-1 receptor and 3 nM at human orexin-2 receptor.
On the same counts, the results for `COc1ccc(-n2nccn2)c(C(=O)N2CCC[C@H]2c2nc3ccc(SC)cc3[nH]2)c1` [Ex. 1.150] are 301 nM and 11 nM.
As to `CSc1cccc2nc([C@@H]3CCCN3C(=O)c3c(C)cccc3-n3nccn3)[nH]c12` [Ex. 1.170], the IC50 on human orexin-1 receptor stood at 258 nM; on human orexin-2 receptor it was 20 nM.
In the same order, the values of `C=C1C[C@@H](c2nc3cc(OC)ccc3[nH]2)N(C(=O)c2nc(C)sc2-c2cccc(Cl)c2Cl)C1` [Ex. 6.23] are 452 nM and 67 nM.
For `Cc1ccc(-c2cccc(C)c2C)c(C(=O)N2CCC[C@@]2(C)c2nc3cc(C(F)(F)F)ccc3[nH]2)c1` [Ex. 5.196], the IC50 on human orexin-1 receptor worked out at 91 nM; on human orexin-2 receptor, 199 nM.
Take `C=C1C[C@@H](c2nc3cc(C)c(C)cc3[nH]2)N(C(=O)c2c(F)cccc2-n2nccn2)C1` [Ex. 6.191]: the IC50 on human orexin-1 receptor was 134 nM; on human orexin-2 receptor, 7 nM.
Consider `C=C1C[C@@H](c2nc3cc(Cl)c(C(F)(F)F)cc3[nH]2)N(C(=O)c2ccccc2-n2nccn2)C1` [Ex. 6.178], for which the IC50 on human orexin-1 receptor turned out to be 44 nM; on human orexin-2 receptor it was 10 nM.
With `COc1cccc2[nH]c([C@@H]3[C@@H](C)CCN3C(=O)c3cc(C)ccc3-n3nccn3)nc12` [Ex. 4.31], the IC50 worked out at 77 nM at human orexin-1 receptor and 774 nM on human orexin-2 receptor.
For `Cc1c(Cl)ccc2[nH]c([C@]3(C)CCCN3C(=O)c3cc(OC(F)(F)F)ccc3-n3nccn3)nc12` [Ex. 5.35], the values for the IC50 on human orexin-1 receptor and at human orexin-2 receptor were 102 nM and 99 nM, respectively.
Consider `Cc1ccc(-n2cccn2)c(C(=O)N2CCC[C@@]2(C)c2nc3c(F)c(F)ccc3[nH]2)c1` [Ex. 5.201], for which the figures for the concentration for half-maximal inhibition (IC50) on human orexin-1 receptor and at human orexin-2 receptor were 265 nM and 861 nM, respectively.
Consider `C[C@@]1(c2nc3cc(C(F)(F)F)c(Cl)cc3[nH]2)CCCN1C(=O)c1cc(F)ccc1-n1nccn1` [Ex. 5.136], for which the results for the half-maximal inhibitory concentration (IC50) at human orexin-1 receptor and at human orexin-2 receptor were 6 nM and 35 nM, respectively.
In the same order, the values of `COc1cc2nc([C@]3(C)CCCN3C(=O)c3cc(OC(F)(F)F)ccc3-n3nccn3)[nH]c2cc1OC` [Ex. 5.84] are 138 nM and 76 nM.
Regarding `C=C1C[C@@H](c2nc3cc(Cl)c(C(F)(F)F)cc3[nH]2)N(C(=O)c2ccc(C)cc2-n2nccn2)C1` [Ex. 6.182], the IC50 came to 12 nM on human orexin-1 receptor and 6 nM on human orexin-2 receptor.
Take `COc1ccccc1-c1sc(C)nc1C(=O)N1CC[C@H](C)[C@H]1c1nc2cc(C(F)(F)F)ccc2[nH]1` [Ex. 4.147]: the IC50 was determined as 13 nM on human orexin-1 receptor and 9650 nM on human orexin-2 receptor.
In the case of `Cc1ccc(-c2ccc(F)cc2)c(C(=O)N2CCC[C@@]2(C)c2nc3cc(C)c(C)cc3[nH]2)c1` [Ex. 5.96], the IC50 on human orexin-1 receptor was 13 nM; at human orexin-2 receptor it was 32 nM.
For the molecule `Cc1c(Cl)ccc2[nH]c([C@]3(C)CCCN3C(=O)c3cc(F)ccc3-c3ccccc3)nc12` [Ex. 5.218], the IC50 on human orexin-1 receptor stood at 13 nM; on human orexin-2 receptor, 36 nM.
In the same order, the values of `Cc1c(Cl)ccc2[nH]c([C@@H]3[C@@H](C)CCN3C(=O)c3cc(C#N)ccc3-c3ccccc3)nc12` [Ex. 4.166] are 2 nM and 568 nM.
Take `COc1cc2nc([C@]3(C)CCCN3C(=O)c3cc(C)ccc3-n3nccn3)n(CC3CC3)c2cc1OC` [Ex. 7.47]: the IC50 at human orexin-1 receptor turned out to be 39 nM; at human orexin-2 receptor, 60 nM.
`C=C1C[C@@H](c2nc3cccc(SC)c3[nH]2)N(C(=O)c2cc(C)ccc2-n2nccn2)C1` [Ex. 6.59]: the IC50 stood at 76 nM at human orexin-1 receptor and 10 nM on human orexin-2 receptor.
As for `COc1cc2nc([C@]3(C)CCCN3C(=O)c3c(-n4nccn4)ccc(C)c3F)[nH]c2cc1OC` [Ex. 5.68], the values for the IC50 on human orexin-1 receptor and on human orexin-2 receptor were 141 nM and 150 nM, respectively.
Regarding `Cc1ccc(-c2ccccc2)c(C(=O)N2CCC[C@@]2(C)c2nc3c(C)c(Cl)ccc3[nH]2)c1` [Ex. 5.223], the IC50 on human orexin-1 receptor was 3 nM; at human orexin-2 receptor, 12 nM.
As for `CSc1cccc2nc([C@@H]3CCCN3C(=O)c3c(F)cccc3-n3nccn3)[nH]c12` [Ex. 1.164], the IC50 on human orexin-1 receptor is 217 nM; on human orexin-2 receptor, 24 nM.
On to `C=C1C[C@@H](c2nc3ccc(Cl)c(C)c3[nH]2)N(C(=O)c2nc(C)sc2-c2ccc(Cl)c(Cl)c2)C1` [Ex. 6.126], for which the IC50 at human orexin-1 receptor is 3 nM; at human orexin-2 receptor, 0.8 nM.
On the same counts, the results for `COc1cc2nc([C@@H]3[C@@H](C)CCN3C(=O)c3c(-n4nccn4)ccc(OC)c3F)[nH]c2cc1OC` [Ex. 4.45] are 124 nM and 5780 nM.
Regarding `COc1cc(C(=O)N2CCC[C@@]2(C)c2nc3cc(OC)c(OC)cc3[nH]2)c(-n2nccn2)cc1OC` [Ex. 5.86], the IC50 was found to be 94 nM at human orexin-1 receptor and 85 nM on human orexin-2 receptor.
Take `Cc1ccc(-c2cccc(F)c2)c(C(=O)N2CCC[C@@]2(C)c2nc3cc(C(F)(F)F)c(Cl)cc3[nH]2)c1` [Ex. 5.153]: the IC50 at human orexin-1 receptor worked out at 22 nM; on human orexin-2 receptor, 35 nM.
On the same counts, the results for `C=C1CC(c2nc3cccc(Cl)c3[nH]2)N(C(=O)c2cc(C)sc2-c2ccc(C)c(C)c2)C1` (stereo not drawn) [Ex. 6.84] are 8 nM and 14 nM.
Turning to `COc1ccc2[nH]c([C@@H]3CCCN3C(=O)c3cc(C)ccc3-n3nccn3)nc2c1` [Ex. 1.2], the IC50 at human orexin-1 receptor is 349 nM; at human orexin-2 receptor, 7 nM.
In the case of `Cc1ccc(-n2nccn2)c(C(=O)N2CC[C@H](C)[C@H]2c2nc3c(C)c(C)ccc3[nH]2)c1` [Ex. 4.37], the figures for the IC50 at human orexin-1 receptor and at human orexin-2 receptor were 24 nM and 988 nM, respectively.
Turning to `COc1ccc2nc([C@@H]3CCCN3C(=O)c3cnc(C)nc3-c3cccc(Cl)c3)[nH]c2c1` [Ex. 1.29], the IC50 at human orexin-1 receptor was found to be 369 nM; at human orexin-2 receptor it was 182 nM.
As for `COc1ccc2nc([C@@H]3CCCN3C(=O)c3cc(Cl)ccc3-n3nccn3)[nH]c2c1` [Ex. 1.157], the IC50 on human orexin-1 receptor was 419 nM; on human orexin-2 receptor, 10 nM.
On to `C=C1C[C@@H](c2nc3cc(OC)ccc3[nH]2)N(C(=O)c2nc(N3CCCC3)sc2-c2cccc(F)c2)C1` [Ex. 6.29], for which the IC50 at human orexin-1 receptor was 69 nM; on human orexin-2 receptor, 92 nM.
In the same order, the values of `CCn1c([C@]2(C)CCCN2C(=O)c2nc(C)sc2-c2ccccc2)nc2c(C)c(Cl)ccc21` [Ex. 7.8] are 2 nM and 4 nM.
Consider `Cc1ccc(-c2sc(N(C)C)nc2C(=O)N2CC[C@H](C)[C@H]2c2nc3c(Cl)cccc3[nH]2)cc1C` [Ex. 4.128], for which the figures for the IC50 at human orexin-1 receptor and at human orexin-2 receptor were 1 nM and 387 nM, respectively.
In the same order, the values of `Cc1ccc(C(=O)N2CCC[C@@]2(C)c2nc3cc(C(F)(F)F)c(Cl)cc3[nH]2)c(-n2nccn2)c1` [Ex. 5.140] are 5 nM and 28 nM.
In the same order, the values of `COc1ccc2nc([C@@H]3CCCN3C(=O)c3nc(C)sc3-c3ccc(C)cc3)[nH]c2c1` [Ex. 1.22] are 415 nM and 52 nM.
Consider `COc1ccc(-c2cccc(OC(F)(F)F)c2)c(C(=O)N2CCC[C@@]2(C)c2nc3c(C)c(Cl)ccc3[nH]2)c1F` [Ex. 5.309], for which the IC50 at human orexin-1 receptor amounted to 23 nM; at human orexin-2 receptor it was 21 nM.
In the same order, the values of `C=C1C[C@@H](c2nc3cc(Cl)c(C(F)(F)F)cc3[nH]2)N(C(=O)c2c(F)cccc2-n2nccn2)C1` [Ex. 6.175] are 77 nM and 19 nM.
As to `Cc1cccc(-c2ccc(C)cc2C(=O)N2CCC[C@@]2(C)c2nc3c(C)c(C)ccc3[nH]2)c1` [Ex. 5.111], the IC50 was determined as 5 nM at human orexin-1 receptor and 7 nM on human orexin-2 receptor.
For the molecule `CCn1c([C@]2(C)CCCN2C(=O)c2nc(C)sc2-c2cccc(Cl)c2)nc2c(C)cccc21` [Ex. 7.6], the figures for the IC50 at human orexin-1 receptor and on human orexin-2 receptor were 5 nM and 6 nM, respectively.
For the molecule `C=C1C[C@@H](c2nc3ccc(Cl)c(C)c3[nH]2)N(C(=O)c2nc(C)ccc2-n2cccn2)C1` [Ex. 6.135], the IC50 is 83 nM on human orexin-1 receptor and 5 nM on human orexin-2 receptor.
As for `CSc1cccc2nc([C@@H]3CCCN3C(=O)c3cnc(C)nc3-c3ccc(C)c(C)c3)[nH]c12` [Ex. 1.85], the figures for the IC50 on human orexin-1 receptor and at human orexin-2 receptor were 5 nM and 23 nM, respectively.
On the same counts, the results for `C=C1C[C@@H](c2nc3c(C)cccc3[nH]2)N(C(=O)c2nc(C)sc2-c2ccc(C)c(C)c2)C1` [Ex. 6.53] are 4 nM and 1 nM.
With `CO[C@H]1CN(C(=O)c2ccc(C)cc2-n2nccn2)C(C)(c2nc3c(C)c(Cl)ccc3[nH]2)C1` (stereo partly drawn) [Ex. 3.49], the IC50 at human orexin-1 receptor turned out to be 13 nM; on human orexin-2 receptor, 18 nM.

The term IC50 denotes the concentration at which inhibition is half-maximal.
